In patent US20260234115A1, “LIPID COMPOUNDS, COMPOSITIONS, AND USES THEREOF” (Liberate Bio, Inc., priority 2023, published 2026):
Marks after values point to notes of the source that are not given here.

System: mouse organs
Assay: In vivo activity screening in mice: organ mean total flux (p/s) of luciferase activity after injection of F2 LNP pools (Table 6, FIG. 7A-7C)
Conditions: luciferase mRNA
Summary of the method: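 Luciferase output per organ is reported as mean total flux (p/s) from IVIS regions of interest. Organs were collected from perfused C57BL/6J mice and imaged 10-15 min after s.c. D-luciferin, 4-6 h after i.v. dosing. Dosing was 0.25-3 mg/kg luciferase mRNA in F2 LNP pools.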

SMILES | Organ Mean Total Flux Femur (Mouse 3, dose 1.0 mg/kg) | Organ Mean Total Flux Heart (Mouse 3, dose 1.0 mg/kg) | Organ Mean Total Flux Kidney (Mouse 3, dose 1.0 mg/kg) | Organ Mean Total Flux Liver (Mouse 3, dose 1.0 mg/kg) | Organ Mean Total Flux Lung (Mouse 3, dose 1.0 mg/kg) | Organ Mean Total Flux Muscle (Mouse 3, dose 1.0 mg/kg) | Organ Mean Total Flux Pancreas (Mouse 3, dose 1.0 mg/kg) | Organ Mean Total Flux Spleen (Mouse 3, dose 1.0 mg/kg) | also measured
CCCCCCC(CCC(=O)OCC(COC(=O)CCCCCC(=O)OCCC(CCCCC)CCCCC)(COC(=O)CCCCCC(=O)OCCC(CCCCC)CCCCC)COC(=O)CCCCCC(=O)OCCC(CCCCC)CCCCC)OC(=O)NCCN1CCCC1 (centres unmarked) [Compound 52] | 6.0 p/s (×10^6) | 9.0 p/s (×10^6) | 8.4 p/s (×10^6) | 12143 p/s (×10^6) | 56.0 p/s (×10^6) | 15.1 p/s (×10^6) | 4.7 p/s (×10^6) | 6.1 p/s (×10^6) | 
CCCCCCC(CCC(=O)OCC(COC(=O)CCCCC(=O)OCCC(CCCC)CCCCC)(COC(=O)CCCCC(=O)OCCC(CCCCC)CCCCC)COC(=O)CCCCC(=O)OCCC(CCCCC)CCCCC)OC(=O)NCCN1CCCC1 (centres unmarked) [Compound 53] | 2.5 p/s (×10^6) | 2.1 p/s (×10^6) | 2.2 p/s (×10^6) | 1286 p/s (×10^6) | 12.1 p/s (×10^6) | 5.5 p/s (×10^6) | 2.3 p/s (×10^6) | 9.3 p/s (×10^6) | 
CCCCCCC(CCC(=O)OCC(COC(=O)CCCC(=O)OCCC(CCCCC)CCCCC)(COC(=O)CCCC(=O)OCCC(CCCCC)CCCCC)COC(=O)CCCC(=O)OCCC(CCCCC)CCCCC)OC(=O)NCCN1CCCC1 (centres unmarked) [Compound 54, O5-[2,2-bis[[5-oxo-5-(3-pentyloctoxy)pentanoyl]oxymethyl]-3-[4-(2-pyrrolidin-1-ylethylcarbamoyloxy)decanoyloxy]propyl]O1-(3-pentyloctyl) pentanedioate] | 9.0 p/s (×10^6) | 19.3 p/s (×10^6) | 60.3 p/s (×10^6) | 24850 p/s (×10^6) | 81.5 p/s (×10^6) | 19.2 p/s (×10^6) | 3.6 p/s (×10^6) | 9.6 p/s (×10^6) | 
CCCCCCC(CCC(=O)OCC(COC(=O)CCCCCOC(=O)C(CCCC)CCCCCC)(COC(=O)CCCCCOC(=O)C(CCCC)CCCCCC)COC(=O)CCCCCOC(=O)C(CCCC)CCCCCC)OC(=O)NCCN1CCCC1 (centres unmarked) [Compound 55, [6-[2,2-bis[6-(2-butyloctanoyloxy)hexanoyloxymethyl]-3-[4-(2-pyrrolidin-1ylethylcarbamoyloxy)decanoyloxy]propoxy]-6-oxo-hexyl]2-butyloctanoate] | 6.1 p/s (×10^6) | 4.4 p/s (×10^6) | 2.4 p/s (×10^6) | 4527 p/s (×10^6) | 19.9 p/s (×10^6) | 17.4 p/s (×10^6) | 2.6 p/s (×10^6) | 6.2 p/s (×10^6) | 
CCCCCCC(CCC(=O)OCC(COC(=O)CCCCOC(=O)C(CCCC)CCCCCC)(COC(=O)CCCCOC(=O)C(CCCC)CCCCCC)COC(=O)CCCCOC(=O)C(CCCC)CCCCCC)OC(=O)NCCN1CCCC1 (centres unmarked) [Compound 56, [5-[2,2-bis[5-(2-butyloctanoyloxy)pentanoyloxymethyl]-3-[4-(2-pyrrolidin-1-ylethylcarbamoyloxy)decanoyloxy]propoxy]-5-oxo-pentyl]2-butyloctanoate] | 6.4 p/s (×10^6) | 17.7 p/s (×10^6) | 9.4 p/s (×10^6) | 15800 p/s (×10^6) | 66.6 p/s (×10^6) | 19.7 p/s (×10^6) | 3.4 p/s (×10^6) | 13.0 p/s (×10^6) | 
CCCCCCC(CCC(=O)OCC(COC(=O)CCCCCCOC(=O)C(CCCC)CCCCCC)(COC(=O)CCCCCCOC(=O)C(CCCC)CCCCCC)COC(=O)CC12CC3CC(CC(C3)C1)C2)OC(=O)NCCN1CCCC1 (centres unmarked) [Compound 57, [7-[2-[[2-(1-adamantyl)acetyl]oxymethyl]-2-[7-(2-butyloctanoyloxy)heptanoyloxymethyl]-3-[4-(2-pyrrolidin-1-ylethylcarbamoyloxy)decanoyloxy]propoxy]-7-oxo-heptyl]2-butyloctanoate] | 7.4 p/s (×10^6) | 16.1 p/s (×10^6) | 11.4 p/s (×10^6) | 25033 p/s (×10^6) | 71.8 p/s (×10^6) | 16.4 p/s (×10^6) | 2.7 p/s (×10^6) | 6.5 p/s (×10^6) | 
CCCCCCC(CCC(=O)OCC(COC(=O)CCCCCOC(=O)C(CCCC)CCCCCC)(COC(=O)CCCCCOC(=O)C(CCCC)CCCCCC)COC(=O)CC12CC3CC(CC(C3)C1)C2)OC(=O)NCCN1CCCC1 (centres unmarked) [Compound 58, [6-[2-[[2-(1-adamantyl)acetyl]oxymethyl]-2-[6-(2-butyloctanoyloxy)hexanoyloxymethyl]-3-[4-(2-pyrolidin-1-ylethylcarbamoyloxy)decanoyloxy]propoxy]-6-oxo-hexyl]2-butyloctanoate] | 11.5 p/s (×10^6) | 2.8 p/s (×10^6) | 2.6 p/s (×10^6) | 1493 p/s (×10^6) | 41.0 p/s (×10^6) | 29.1 p/s (×10^6) | 9.2 p/s (×10^6) | 10.5 p/s (×10^6) | 
CCCCCCC(CCC(=O)OCC(COC(=O)CCCCOC(=O)C(CCCC)CCCCCC)(COC(=O)CCCCOC(=O)C(CCCC)CCCCCC)COC(=O)CC12CC3CC(CC(C3)C1)C2)OC(=O)NCCN1CCCC1 (centres unmarked) [Compound 59, [5-[2-[[2-(1-adamantyl)acetyl]oxymethyl]-2-[5-(2-butyloctanoyloxy)pentanoyloxymethyl]-3-[4-(2-pyrrolidin-1-ylethylcarbamoyloxy)decanoyloxy]propoxy]-5-oxo-pentyl]2-butyloctanoate] |  |  |  |  |  |  |  |  | Organ Mean Total Flux Femur (Mouse 13, dose 0.5 mg/kg): 2.6 p/s (×10^6); Organ Mean Total Flux Heart (Mouse 13, dose 0.5 mg/kg): 2.6 p/s (×10^6); Organ Mean Total Flux Kidney (Mouse 13, dose 0.5 mg/kg): 1.5 p/s (×10^6); Organ Mean Total Flux Liver (Mouse 13, dose 0.5 mg/kg): 1967 p/s (×10^6); Organ Mean Total Flux Lung (Mouse 13, dose 0.5 mg/kg): 9.9 p/s (×10^6); Organ Mean Total Flux Muscle (Mouse 13, dose 0.5 mg/kg): 4.7 p/s (×10^6); Organ Mean Total Flux Pancreas (Mouse 13, dose 0.5 mg/kg): 0.7 p/s (×10^6); Organ Mean Total Flux Spleen (Mouse 13, dose 0.5 mg/kg): 2.8 p/s (×10^6)
CCCCC/C=C\CCOC(=O)CCCCCC(=O)OCC(COC(=O)CCCCC)(COC(=O)CCCCCC(=O)OCC/C=C\CCCCC)COC(=O)CCC(CCCCCC)OC(=O)NCCN1CCCC1 (centres unmarked) [Compound 60] |  |  |  |  |  |  |  |  | Organ Mean Total Flux Femur (Mouse 2, dose 1.0 mg/kg): 56.4 p/s (×10^6); Organ Mean Total Flux Heart (Mouse 2, dose 1.0 mg/kg): 2.9 p/s (×10^6); Organ Mean Total Flux Kidney (Mouse 2, dose 1.0 mg/kg): 5.5 p/s (×10^6); Organ Mean Total Flux Liver (Mouse 2, dose 1.0 mg/kg): 1118 p/s (×10^6); Organ Mean Total Flux Lung (Mouse 2, dose 1.0 mg/kg): 72.8 p/s (×10^6); Organ Mean Total Flux Muscle (Mouse 2, dose 1.0 mg/kg): 28.7 p/s (×10^6); Organ Mean Total Flux Pancreas (Mouse 2, dose 1.0 mg/kg): 86.2 p/s (×10^6); Organ Mean Total Flux Spleen (Mouse 2, dose 1.0 mg/kg): 367.7 p/s (×10^6); Organ Mean Total Flux Femur (Mouse 14, dose 0.5 mg/kg): 11.4 p/s (×10^6); Organ Mean Total Flux Heart (Mouse 14, dose 0.5 mg/kg): 2.5 p/s (×10^6); Organ Mean Total Flux Kidney (Mouse 14, dose 0.5 mg/kg): 4.1 p/s (×10^6); Organ Mean Total Flux Liver (Mouse 14, dose 0.5 mg/kg): 448.0 p/s (×10^6); Organ Mean Total Flux Lung (Mouse 14, dose 0.5 mg/kg): 20.5 p/s (×10^6); Organ Mean Total Flux Muscle (Mouse 14, dose 0.5 mg/kg): 14.9 p/s (×10^6); Organ Mean Total Flux Pancreas (Mouse 14, dose 0.5 mg/kg): 18.0 p/s (×10^6); Organ Mean Total Flux Spleen (Mouse 14, dose 0.5 mg/kg): 42.7 p/s (×10^6)
CCCCC/C=C\CCOC(=O)CCCCC(=O)OCC(COC(=O)CCCCC(=O)OCC/C=C\CCCCC)(COC(=O)CCC(CCCC)CCOC(=O)NCCN1CCCC1)COC(=O)CC12CC3CC(CC(C3)C1)C2 (centres unmarked) [Compound 61, O6-[2-[[2-(1-adamantyl)acetyl]oxymethyl]-2-[[6-[(Z)-non-3-enoxy]-6-oxo-hexanoyl]-oxymethyl]-3-[4-[2-(2-pyrrolidin-1-ylethylcarbamoyloxy)ethyl]octanoyloxy]propyl]O1-[(Z)-non-3-enyl]hexanedioate] |  |  |  |  |  |  |  |  | Organ Mean Total Flux Femur (Mouse 2, dose 1.0 mg/kg): 34.2 p/s (×10^6); Organ Mean Total Flux Heart (Mouse 2, dose 1.0 mg/kg): 1.9 p/s (×10^6); Organ Mean Total Flux Kidney (Mouse 2, dose 1.0 mg/kg): 4.8 p/s (×10^6); Organ Mean Total Flux Liver (Mouse 2, dose 1.0 mg/kg): 542.7 p/s (×10^6); Organ Mean Total Flux Lung (Mouse 2, dose 1.0 mg/kg): 123.9 p/s (×10^6); Organ Mean Total Flux Muscle (Mouse 2, dose 1.0 mg/kg): 28.1 p/s (×10^6); Organ Mean Total Flux Pancreas (Mouse 2, dose 1.0 mg/kg): 28.8 p/s (×10^6); Organ Mean Total Flux Spleen (Mouse 2, dose 1.0 mg/kg): 85.1 p/s (×10^6); Organ Mean Total Flux Femur (Mouse 14, dose 0.5 mg/kg): 16.6 p/s (×10^6); Organ Mean Total Flux Heart (Mouse 14, dose 0.5 mg/kg): 1.0 p/s (×10^6); Organ Mean Total Flux Kidney (Mouse 14, dose 0.5 mg/kg): 5.0 p/s (×10^6); Organ Mean Total Flux Liver (Mouse 14, dose 0.5 mg/kg): 157.3 p/s (×10^6); Organ Mean Total Flux Lung (Mouse 14, dose 0.5 mg/kg): 33.8 p/s (×10^6); Organ Mean Total Flux Muscle (Mouse 14, dose 0.5 mg/kg): 11.1 p/s (×10^6); Organ Mean Total Flux Pancreas (Mouse 14, dose 0.5 mg/kg): 51.6 p/s (×10^6); Organ Mean Total Flux Spleen (Mouse 14, dose 0.5 mg/kg): 109.9 p/s (×10^6)
CCCCC/C=C\CCOC(=O)CCCCC(=O)OCC(COC(=O)CCCCC(=O)OCC/C=C\CCCCC)(COC(=O)CCC(CCCCCCCC)OC(=O)NCCN1CCCC1)COC(=O)CC12CC3CC(CC(C3)C1)C2 (centres unmarked) [Compound 66, O6-[2-[[2-(1-adamantyl)acetyl]oxymethyl]-2-[[6-[(Z)-non-3-enoxy]-6-oxohexanoyl]oxymethyl]-3-[4-(2-pyrrolidin-1-ylethylcarbamoyloxy)dodecanoyloxy]propyl]O1-[(Z)-non-3-enyl]hexanedioate] |  |  |  |  |  |  |  |  | Organ Mean Total Flux Femur (Mouse 9, dose 0.5 mg/kg): 5.5 p/s (×10^6); Organ Mean Total Flux Heart (Mouse 9, dose 0.5 mg/kg): 1.3 p/s (×10^6); Organ Mean Total Flux Kidney (Mouse 9, dose 0.5 mg/kg): 1.8 p/s (×10^6); Organ Mean Total Flux Liver (Mouse 9, dose 0.5 mg/kg): 68.9 p/s (×10^6); Organ Mean Total Flux Lung (Mouse 9, dose 0.5 mg/kg): 14.1 p/s (×10^6); Organ Mean Total Flux Muscle (Mouse 9, dose 0.5 mg/kg): 11.3 p/s (×10^6); Organ Mean Total Flux Pancreas (Mouse 9, dose 0.5 mg/kg): 4.0 p/s (×10^6); Organ Mean Total Flux Spleen (Mouse 9, dose 0.5 mg/kg): 7.8 p/s (×10^6)
